Drawing on patent US8735417B2, “Aminopyrimidines as Syk inhibitors” (Merck Sharp & Dohme Corp., priority 2009, dated 2014), this text covers IC50 for 60 compounds.

The target of this test is T1, recombinant human GST-SYK (Homo sapiens, UniProt P43405).
T1 construct: purchased Carna Biosciences 08-176
In words: Homogeneous Time-Resolved Fluorescence (HTRF) assay for the recombinant human SYK enzyme. To be noted: recombinant human GST-SYK 5 pM, ATP 25 μM, 10-dose titration; read-out: rhSYK Activity (IC50). In kind it is biochemical. As for the experimental part: Homogeneous Time-Resolved Fluorescence (HTRF) Assay for the Recombinant Human SYK Enzyme:
A recombinant GST-hSYK fusion protein was used to measure potency of compounds to inhibit human SYK activity. The recombinant human GST-SYK (Carna Biosciences #08-176) (5 pM final concentration) was incubated with various concentrations of the inhibitor diluted in DMSO (0.1% final concentration) for 10 minutes at room temperature in 15 mM Tris-HCl (pH 7.5), 0.01% tween 20, 2 mM DTT in 384 well plate format. To initiate the reaction the biotinylated substrate peptide (250 nM final concentration) that contains the phosphorylation site for SYK was added with magnesium (5 mM final concentration) and ATP (25 μM final concentration). Final volume of the reaction was 10 μL. Phosphorylation of the peptide was allowed to proceed for 45′ at room temperature. To quench the reaction and detect the phosphorylated product, 2 nM of a Europium-atiti-phosphotyrosine antibody (Perkin Elmer #AD0161) and 70 nM SA-APC (Perkin-Elmer #CR130-100) were added together in 15 mM Tris pH 7.5, 40 mM EDTA, 0.01% tween 20. Final volume of the quenching solution was 10 μL. The resulting HTRF signal was measured after 30 minutes on a EnVision (Perkin-Elmer) reader using a time-resolved fluorescence protocol.
Background: In TR-FRET formats the signal depends on donor and acceptor labels being close together.
The term IC50 denotes the concentration that inhibits the measured activity by half. Turning to `CCCN(CCO)c1ncc(-c2cccc(Nc3nccc(C(F)(F)F)n3)c2)s1` [Example 52], the IC50 was no more than 100 nM.

`Cc1cc(Nc2nccc(C(F)(F)F)n2)cc(-c2cnc(NCCc3cscn3)s2)c1` [Example 110]: the IC50 is no more than 100 nM.

For the compound `OC1(c2ccccc2)CCN(c2ncc(-c3cccc(Nc4nccc(C(F)(F)F)n4)c3)s2)C1` (stereo not drawn) [Example 159], the IC50 fell in the range of 100 to 1000 nM.

On to `FC(F)(F)c1ccnc(Nc2cccc(-c3cnc(NCc4cccnc4)s3)c2)n1` [Example 39], for which the IC50 is no more than 100 nM.

`CN(CCO)c1ncc(-c2cccc(Nc3nccc(C(F)(F)F)n3)c2)s1` [Example 4]: the IC50 is no more than 100 nM.

For the compound `COc1nc(Nc2cc(C)cc(-c3cnc(N4CCCNC(=O)C4)s3)c2)ncc1Cl` [Example 210, 4-(5-{3-[(5-chloro-4-methoxypyrimidin-2-yl)amino]-5-methylphenyl}-1,3-thiazol-2-yl)-1,4-diazepan-2-one], the IC50 is no more than 100 nM.

Take `OCCN(c1ncc(-c2cccc(Nc3nccc(C(F)(F)F)n3)c2)s1)C1CCCC1` [Example 49]: the IC50 lay in the range of 100 to 1000 nM.

In the case of `Cc1cc(Nc2nccc(C(F)(F)F)n2)cc(-c2csc(N3CCC(O)CC3)n2)c1` [Example 225, 1-[4-(3-methyl-5-{[4-(trifluoromethyl)pyrimidin-2-yl]amino}phenyl)-1,3-thiazol-2-yl]piperidin-4-ol], the IC50 fell in the range of 100 to 1000 nM.

Take `Cc1cc(Nc2nccc(C(F)(F)F)n2)cc(-c2cnc(N3CCOC3=O)s2)c1` [Example 180]: the IC50 was no more than 100 nM.

In the case of `CC(C)(O)CNc1ncc(-c2cccc(Nc3nccc(C(F)(F)F)n3)c2)s1` [Example 29], the IC50 was no more than 100 nM.

Take `Cc1cc(Nc2nccc(C(F)(F)F)n2)cc(-c2cnc(N(C)Cc3cnn(C)c3)s2)c1` [Example 101]: the 50% inhibitory concentration (IC50) is no more than 100 nM.

With `Cc1cc(Nc2nccc(C(F)(F)F)n2)cc(-c2cnc(NCc3ccncc3)s2)c1` [Example 86], the IC50 was no more than 100 nM.

Consider `FC(F)(F)c1ccnc(Nc2cccc(-c3cnc(-n4ccnc4)s3)c2)n1` [Example 178], for which the concentration for half-maximal inhibition (IC50) was no more than 100 nM.

As for `COCC(=O)N1CCN(c2ncc(-c3cccc(Nc4nccc(C(F)(F)F)n4)c3)s2)CC1` [Example 127], the IC50 was no more than 100 nM.

For `CSCCC(CO)Nc1ncc(-c2cccc(Nc3nccc(C(F)(F)F)n3)c2)s1` (stereo not drawn) [Example 80], the IC50 is no more than 100 nM.

With `Cc1ccnc(Nc2cccc(-c3cnc(N4CCC(C(=O)O)CC4)s3)c2)n1` [Example 193, 1-(5-{3-[(4-methylpyrimidin-2-yl)amino]phenyl}-1,3-thiazol-2-yl)piperidine-4-carboxylic acid], the IC50 is 100 to 1000 nM.

`O[C@@H]1CN(c2ncc(-c3cccc(Nc4nccc(C(F)(F)F)n4)c3)s2)C[C@@H]1O` [Example 157]: the half-maximal inhibitory concentration (IC50) was no more than 100 nM.

For the compound `Cc1cc(Nc2nccc(O[C@@H]3CCNC3)n2)cc(-c2cnc(N3CCCNC(=O)C3)s2)c1` [Example 212, 4-{5-[3-methyl-5-({4-[(3R)-pyrrolidin-3-yloxy]pyrimidin-2-yl}amino)phenyl]-1,3-thiazol-2-yl}-1,4-diazepan-2-one], the IC50 is no more than 100 nM.

As for `Cc1cc(Nc2nccc(C(F)(F)F)n2)cc(-c2cnc(NCc3cnn(C)c3)s2)c1` [Example 100], the IC50 was no more than 100 nM.

As to `Cc1cc(Nc2nccc(C(C)C)n2)cc(-c2cnc(N3CCCNC(=O)C3)s2)c1` [Example 206], the IC50 was no more than 100 nM.

Regarding `Cc1cc(Nc2nccc(C(F)(F)F)n2)cc(-c2cnc(N3CCC(CC(N)=O)CC3)s2)c1` [Example 148], the IC50 was no more than 100 nM.

As for `Cc1cc(C)n(CCNc2ncc(-c3cccc(Nc4nccc(C(F)(F)F)n4)c3)s2)n1` [Example 63], the IC50 lay in the range of 100 to 1000 nM.

For `CCCC[C@@H](CO)Nc1ncc(-c2cccc(Nc3nccc(C(F)(F)F)n3)c2)s1` [Example 74], the IC50 is no more than 100 nM.

On to `CC(=O)Nc1cc(Nc2nccc(C(F)(F)F)n2)cc(-c2cnc(N(C)CCO)s2)c1` [Example 186], for which the IC50 is no more than 100 nM.

Take `FC(F)(F)c1ccnc(Nc2cccc(-c3cnc(N4CCC(n5cc(-c6ccccc6)nn5)CC4)s3)c2)n1` [Example 137]: the IC50 is 100 to 1000 nM.

In the case of `FC(F)(F)c1ccnc(Nc2cccc(-c3cnc(NCCc4c[nH]cn4)s3)c2)n1` [Example 35], the IC50 is no more than 100 nM.

Take `FC(F)(F)c1ccnc(Nc2cccc(-c3cnc(N4CCCC4c4ccccc4)s3)c2)n1` (stereo not drawn) [Example 161]: the IC50 was 100 to 1000 nM.

As to `FC(F)(F)c1ccnc(Nc2cccc(-c3cnc(NCC4CCOC4)s3)c2)n1` (stereo not drawn) [Example 45], the concentration for half-maximal inhibition (IC50) was no more than 100 nM.

Turning to `COC(=O)c1ccc(N(C)c2ncc(-c3cccc(Nc4nccc(C(F)(F)F)n4)c3)s2)cc1` [Example 30], the IC50 lay within 100 to 1000 nM.

`CN(CCO)c1ncc(-c2cc(N)cc(Nc3nccc(C(F)(F)F)n3)c2)s1` [Example 189]: the IC50 was no more than 100 nM.

On to `Cc1cc(Nc2nccc(C(F)(F)F)n2)cc(-c2cnc(NC[C@H]3CC[C@@H](N)CC3)s2)c1` [Example 98], for which the IC50 was no more than 100 nM.

Turning to `CC(C)(CO)CNc1ncc(-c2cccc(Nc3nccc(C(F)(F)F)n3)c2)s1` [Example 16], the IC50 is no more than 100 nM.

`FC(F)(F)c1ccnc(Nc2cccc(-c3cnc(N4CCOCC4)s3)c2)n1` [Example 119]: the IC50 was no more than 100 nM.

For the compound `CN1CCC(CNc2ncc(-c3cccc(Nc4nccc(C(F)(F)F)n4)c3)s2)C1` (stereo not drawn) [Example 53], the IC50 was no more than 100 nM.

Take `Cc1cc(Nc2nccc(OCc3ccccc3)n2)cc(-c2cnc(N3CCCNC(=O)C3)s2)c1` [Example 208]: the IC50 is no more than 100 nM.

In the case of `FC(F)(F)c1ccnc(Nc2cccc(-c3cnc(NCC4CCOCC4)s3)c2)n1` [Example 61], the IC50 is no more than 100 nM.

For `FC(F)(F)c1ccnc(Nc2cccc(-c3cnc(NC4CCCC4)s3)c2)n1` [Example 43], the IC50 fell in the range of 100 to 1000 nM.

As to `CC(=O)Nc1cc(Nc2nccc(C(F)(F)F)n2)cc(-c2cnc(NCCO)s2)c1` [Example 187], the concentration for half-maximal inhibition (IC50) is no more than 100 nM.

Take `Cc1cc(Nc2nccc(C(F)(F)F)n2)cc(-c2cnc(NCCc3nccs3)s2)c1` [Example 109]: the IC50 was no more than 100 nM.

Take `Cc1cc(Nc2nccc(SCCO)n2)cc(-c2cnc(N3CCCNC(=O)C3)s2)c1` [Example 222, 4-{5-[3-({4-[(2-hydroxyethyl)sulfanyl]pyrimidin-2-yl}amino)-5-methylphenyl]-1,3-thiazol-2-yl}-1,4-diazepan-2-one]: the IC50 is no more than 100 nM.

`OCCCCCCN(Cc1ccccc1)c1ncc(-c2cccc(Nc3nccc(C(F)(F)F)n3)c2)s1` [Example 26]: the IC50 was in the range of 100 to 1000 nM.

Consider `O=C(COC1CCN(c2ncc(-c3cccc(Nc4nccc(C(F)(F)F)n4)c3)s2)CC1)NC1CC1` [Example 136], for which the IC50 is 100 to 1000 nM.

Regarding `NC1CCN(c2ncc(-c3cccc(Nc4nccc(C(F)(F)F)n4)c3)s2)C1` (stereo not drawn) [Example 162], the IC50 is no more than 100 nM.

In the case of `FC(F)(F)c1ccnc(Nc2cccc(-c3cnc(NCCc4cccs4)s3)c2)n1` [Example 40], the IC50 was 100 to 1000 nM.

Consider `CC(Cc1cnccn1)Nc1ncc(-c2cccc(Nc3nccc(C(F)(F)F)n3)c2)s1` (stereo not drawn) [Example 56], for which the IC50 was no more than 100 nM.

Take `OC1CCCC(Nc2ncc(-c3cccc(Nc4nccc(C(F)(F)F)n4)c3)s2)C1` (stereo not drawn) [Example 82]: the half-maximal inhibitory concentration (IC50) was no more than 100 nM.

`CCc1ccnc(Nc2cc(C)cc(-c3cnc(N4CCCNC(=O)C4)s3)c2)n1` [Example 207]: the IC50 is no more than 100 nM.

For the compound `O=C1CN(c2ncc(-c3cccc(Nc4nccc(C(F)(F)F)n4)c3)s2)CCCN1` [Example 166], the IC50 is no more than 100 nM.

Consider `Cc1cc(Nc2nccc(C(F)(F)F)n2)cc(-c2cnc(N3CCN4CCCC4C3)s2)c1` (stereo not drawn) [Example 172], for which the IC50 is no more than 100 nM.

Take `Cc1cc(Nc2nccc(C(F)(F)F)n2)cc(-c2cnc(N3CCC(OCC(=O)NC(C)(C)C)CC3)s2)c1` [Example 145]: the IC50 is 1000 to 10000 nM.

Turning to `Cc1cc(CNc2ncc(-c3cccc(Nc4nccc(C(F)(F)F)n4)c3)s2)nn1C` [Example 67], the IC50 was no more than 100 nM.

As to `Cc1cc(Nc2nccc(C(F)(F)F)n2)cc(-c2cnc(NCCc3c[nH]cn3)s2)c1` [Example 93], the IC50 was no more than 100 nM.

Take `OCC(CO)Nc1ncc(-c2cccc(Nc3nccc(C(F)(F)F)n3)c2)s1` [Example 11]: the IC50 was no more than 100 nM.

As to `CCNC(=O)Nc1cc(Nc2nccc(C(F)(F)F)n2)cc(-c2cnc(N3CCCNC(=O)C3)s2)c1` [Example 185, 1-ethyl-3-(3-[2-(3-oxo-1,4-diazepan-1-yl)-1,3-thiazol-5-yl]-5-{[4-(trifluoromethyl)pyrimidin-2-yl]amino}phenyl)urea], the IC50 was no more than 100 nM.

`CCC(CO)Nc1ncc(-c2cc(C)cc(Nc3nccc(C(F)(F)F)n3)c2)s1` (stereo not drawn) [Example 84]: the IC50 is no more than 100 nM.

Regarding `Cn1cncc1CNc1ncc(-c2cccc(Nc3nccc(C(F)(F)F)n3)c2)s1` [Example 22], the concentration for half-maximal inhibition (IC50) was no more than 100 nM.

On to `FC(F)(F)c1ccnc(Nc2cccc(-c3cnc(NCc4cncnc4)s3)c2)n1` [Example 31], for which the IC50 was no more than 100 nM.

As to `Cc1cnc(Nc2cc(C)cc(-c3cnc(N4CCCNC(=O)C4)s3)c2)nc1` [Example 203], the IC50 is no more than 100 nM.

`Cc1cc(Nc2nccc(C(F)(F)F)n2)cc(-c2cnc(NCCc3cnccn3)s2)c1` [Example 96]: the 50% inhibitory concentration (IC50) is no more than 100 nM.

For the compound `Cc1cc(Nc2nccc(C(F)(F)F)n2)cc(-c2cnc(N(C)CCO)s2)c1` [Example 27], the IC50 is no more than 100 nM.
